Laboratory results reported in ChEMBL document CHEMBL3046213, “Repellent, insecticidal and phytotoxic activities of isoalantolactone from Inula racemosa” (Crop Prot, 2006).

Experiments:
Sitophilus oryzae [1] = assay: Insecticidal activity against Sitophilus oryzae (rice weevil) assessed as mortality at 3000 ug/g after 15 days by food poison technique relative to acetone-treated control; type: functional
Triticum aestivum [2] = assay: Phytotoxicity in Triticum aestivum (wheat) assessed as germination rate at 500 ug/ml pre-soaked for 60 min measured after 24 hr relative to acetone-treated control; type: organism-based; conditions: in vivo
Sitophilus oryzae [3] = assay: Insecticidal activity against Sitophilus oryzae (rice weevil) assessed as mortality at 0.05 ug/g after 20 days by food poison technique relative to acetone-treated control; type: functional
Sitophilus oryzae [4] = assay: Repellent activity against Sitophilus oryzae (rice weevil) assessed as settling responses at 125 ug/g preincubated for 12 hr prior to inoculation measured after 24 hr by food preference chamber method (reference value: 49.45 +/- 2.65 %); type: functional
Triticum aestivum [5] = assay: Phytotoxicity in Triticum aestivum (wheat) assessed as germination rate at 500 ug/ml pre-soaked for 30 min measured after 48 hr relative to acetone-treated control; type: organism-based; conditions: in vivo
Triticum aestivum [6] = assay: Phytotoxicity in Triticum aestivum (wheat) assessed as root growth at 500 ug/ml pre-soaked for 30 min measured after 120 hr relative to acetone-treated control; type: organism-based; conditions: in vivo
Sitophilus oryzae [7] = assay: Insecticidal activity against Sitophilus oryzae (rice weevil) assessed as mortality after 20 days by food poison technique; type: functional
Triticum aestivum [8] = assay: Phytotoxicity in Triticum aestivum (wheat) assessed as germination rate at 500 ug/ml pre-soaked for 60 min measured after 48 hr relative to acetone-treated control; type: organism-based; conditions: in vivo
Sitophilus oryzae [9] = assay: Insecticidal activity against Sitophilus oryzae (rice weevil) assessed as mortality at 1000 ug/g after 10 days by food poison technique relative to acetone-treated control; type: functional
Triticum aestivum [10] = assay: Phytotoxicity in Triticum aestivum (wheat) assessed as shoot growth at 500 ug/ml pre-soaked for 30 min measured after 96 hr relative to acetone-treated control; type: organism-based; conditions: in vivo
Sitophilus oryzae [11] = assay: Insecticidal activity against Sitophilus oryzae (rice weevil) assessed as mortality at 200 ug/g after 15 days by food poison technique relative to acetone-treated control; type: functional
Sitophilus oryzae [12] = assay: Insecticidal activity against Sitophilus oryzae (rice weevil) assessed as mortality at 200 ug/g after 20 days by food poison technique relative to acetone-treated control; type: functional
Sitophilus oryzae [13] = assay: Insecticidal activity against Sitophilus oryzae (rice weevil) assessed as mortality at 1000 ug/g after 5 days by food poison technique relative to acetone-treated control; type: functional
Sitophilus oryzae [14] = assay: Insecticidal activity against Sitophilus oryzae (rice weevil) assessed as mortality at 0.05 ug/g after 5 days by food poison technique relative to acetone-treated control; type: functional
Sitophilus oryzae [15] = assay: Insecticidal activity against Sitophilus oryzae (rice weevil) assessed as mortality at 400 ug/g after 15 days by food poison technique relative to acetone-treated control; type: functional
Triticum aestivum [16] = assay: Phytotoxicity in Triticum aestivum (wheat) assessed as shoot growth at 500 ug/ml pre-soaked for 60 min measured after 72 hr relative to acetone-treated control; type: organism-based; conditions: in vivo
Triticum aestivum [17] = assay: Phytotoxicity in Triticum aestivum (wheat) assessed as germination rate at 500 ug/ml pre-soaked for 30 min measured after 72 hr relative to acetone-treated control; type: organism-based; conditions: in vivo
Triticum aestivum [18] = assay: Phytotoxicity in Triticum aestivum (wheat) assessed as root growth at 500 ug/ml pre-soaked for 60 min measured after 96 hr relative to acetone-treated control; type: organism-based; conditions: in vivo
Triticum aestivum [19] = assay: Phytotoxicity in Triticum aestivum (wheat) assessed as root growth at 500 ug/ml pre-soaked for 30 min measured after 96 hr relative to acetone-treated control; type: organism-based; conditions: in vivo
Sitophilus oryzae [20] = assay: Repellent activity against Sitophilus oryzae (rice weevil) assessed as settling responses at 50 ug/g preincubated for 12 hr prior to inoculation measured after 24 hr by food preference chamber method (reference value: 49.45 +/- 2.65 %); type: functional
Sitophilus oryzae [21] = assay: Insecticidal activity against Sitophilus oryzae (rice weevil) assessed as mortality at 0.05 ug/g after 10 days by food poison technique relative to acetone-treated control; type: functional
Sitophilus oryzae [22] = assay: Repellent activity against Sitophilus oryzae (rice weevil) assessed as settling responses at 75 ug/g preincubated for 12 hr prior to inoculation measured after 24 hr by food preference chamber method (reference value: 49.45 +/- 2.65 %); type: functional
Sitophilus oryzae [23] = assay: Insecticidal activity against Sitophilus oryzae (rice weevil) assessed as mortality at 0.05 ug/g after 15 days by food poison technique relative to acetone-treated control; type: functional
Sitophilus oryzae [24] = assay: Insecticidal activity against Sitophilus oryzae (rice weevil) assessed as mortality at 400 ug/g after 10 days by food poison technique relative to acetone-treated control; type: functional
Triticum aestivum [25] = assay: Phytotoxicity in Triticum aestivum (wheat) assessed as root growth at 500 ug/ml pre-soaked for 30 min measured after 72 hr relative to acetone-treated control; type: organism-based; conditions: in vivo
Sitophilus oryzae [26] = assay: Insecticidal activity against Sitophilus oryzae (rice weevil) assessed as mortality at 1000 ug/g after 20 days by food poison technique relative to acetone-treated control; type: functional
Sitophilus oryzae [27] = assay: Insecticidal activity against Sitophilus oryzae (rice weevil) assessed as mortality at 2000 ug/g after 20 days by food poison technique relative to acetone-treated control; type: functional
Triticum aestivum [28] = assay: Phytotoxicity in Triticum aestivum (wheat) assessed as germination rate at 500 ug/ml pre-soaked for 30 min measured after 24 hr relative to acetone-treated control; type: organism-based; conditions: in vivo
Sitophilus oryzae [29] = assay: Insecticidal activity against Sitophilus oryzae (rice weevil) assessed as mortality at 400 ug/g after 20 days by food poison technique relative to acetone-treated control; type: functional
Sitophilus oryzae [30] = assay: Insecticidal activity against Sitophilus oryzae (rice weevil) assessed as mortality at 600 ug/g after 10 days by food poison technique relative to acetone-treated control; type: functional
Sitophilus oryzae [31] = assay: Insecticidal activity against Sitophilus oryzae (rice weevil) assessed as mortality at 3000 ug/g after 5 days by food poison technique relative to acetone-treated control; type: functional
Sitophilus oryzae [32] = assay: Insecticidal activity against Sitophilus oryzae (rice weevil) assessed as mortality at 3000 ug/g after 20 days by food poison technique relative to acetone-treated control; type: functional
Triticum aestivum [33] = assay: Phytotoxicity in Triticum aestivum (wheat) assessed as root growth at 500 ug/ml pre-soaked for 60 min measured after 72 hr relative to acetone-treated control; type: organism-based; conditions: in vivo
Triticum aestivum [34] = assay: Phytotoxicity in Triticum aestivum (wheat) assessed as shoot growth at 500 ug/ml pre-soaked for 30 min measured after 120 hr relative to acetone-treated control; type: organism-based; conditions: in vivo
Triticum aestivum [35] = assay: Phytotoxicity in Triticum aestivum (wheat) assessed as germination rate at 500 ug/ml pre-soaked for 30 min measured after 96 hr relative to acetone-treated control; type: organism-based; conditions: in vivo
Triticum aestivum [36] = assay: Phytotoxicity in Triticum aestivum (wheat) assessed as shoot growth at 500 ug/ml pre-soaked for 30 min measured after 48 hr relative to acetone-treated control; type: organism-based; conditions: in vivo
Triticum aestivum [37] = assay: Phytotoxicity in Triticum aestivum (wheat) assessed as germination rate at 500 ug/ml pre-soaked for 60 min measured after 96 hr relative to acetone-treated control; type: organism-based; conditions: in vivo
Triticum aestivum [38] = assay: Phytotoxicity in Triticum aestivum (wheat) assessed as shoot growth at 500 ug/ml pre-soaked for 60 min measured after 48 hr relative to acetone-treated control; type: organism-based; conditions: in vivo
Sitophilus oryzae [39] = assay: Insecticidal activity against Sitophilus oryzae (rice weevil) assessed as mortality at 200 ug/g after 5 days by food poison technique relative to acetone-treated control; type: functional
Sitophilus oryzae [40] = assay: Insecticidal activity against Sitophilus oryzae (rice weevil) assessed as mortality at 2000 ug/g after 15 days by food poison technique relative to acetone-treated control; type: functional
Triticum aestivum [41] = assay: Phytotoxicity in Triticum aestivum (wheat) assessed as shoot growth at 500 ug/ml pre-soaked for 60 min measured after 96 hr relative to acetone-treated control; type: organism-based; conditions: in vivo
Sitophilus oryzae [42] = assay: Insecticidal activity against Sitophilus oryzae (rice weevil) assessed as mortality at 1000 ug/g after 15 days by food poison technique relative to acetone-treated control; type: functional
Sitophilus oryzae [43] = assay: Insecticidal activity against Sitophilus oryzae (rice weevil) assessed as mortality at 3000 ug/g after 10 days by food poison technique relative to acetone-treated control; type: functional
Sitophilus oryzae [44] = assay: Insecticidal activity against Sitophilus oryzae (rice weevil) assessed as mortality at 600 ug/g after 15 days by food poison technique relative to acetone-treated control; type: functional
Sitophilus oryzae [45] = assay: Insecticidal activity against Sitophilus oryzae (rice weevil) assessed as increase in mortality after 5 to 20 days by food poison technique; type: functional, organism-based
Sitophilus oryzae [46] = assay: Insecticidal activity against Sitophilus oryzae (rice weevil) assessed as mortality after 15 days by food poison technique; type: functional
Triticum aestivum [47] = assay: Phytotoxicity in Triticum aestivum (wheat) assessed as root growth at 500 ug/ml pre-soaked for 60 min measured after 48 hr relative to acetone-treated control; type: organism-based; conditions: in vivo
Triticum aestivum [48] = assay: Phytotoxicity in Triticum aestivum (wheat) assessed as root growth at 500 ug/ml pre-soaked for 60 min measured after 120 hr relative to acetone-treated control; type: organism-based; conditions: in vivo
Sitophilus oryzae [49] = assay: Insecticidal activity against Sitophilus oryzae (rice weevil) assessed as mortality at 2000 ug/g after 5 days by food poison technique relative to acetone-treated control; type: functional
Sitophilus oryzae [50] = assay: Insecticidal activity against Sitophilus oryzae (rice weevil) assessed as mortality at 600 ug/g after 20 days by food poison technique relative to acetone-treated control; type: functional
Sitophilus oryzae [51] = assay: Insecticidal activity against Sitophilus oryzae (rice weevil) assessed as mortality at 2000 ug/g after 10 days by food poison technique relative to acetone-treated control; type: functional
Sitophilus oryzae [52] = assay: Insecticidal activity against Sitophilus oryzae (rice weevil) assessed as mortality after 5 days by food poison technique; type: functional
Sitophilus oryzae [53] = assay: Insecticidal activity against Sitophilus oryzae (rice weevil) assessed as mortality at 600 ug/g after 5 days by food poison technique relative to acetone-treated control; type: functional
Sitophilus oryzae [54] = assay: Repellent activity against Sitophilus oryzae (rice weevil) assessed as settling responses at 100 ug/g preincubated for 12 hr prior to inoculation measured after 24 hr by food preference chamber method (reference value: 49.45 +/- 2.65 %); type: functional
Triticum aestivum [55] = assay: Phytotoxicity in Triticum aestivum (wheat) assessed as root growth at 500 ug/ml pre-soaked for 30 min measured after 48 hr relative to acetone-treated control; type: organism-based; conditions: in vivo
Sitophilus oryzae [56] = assay: Insecticidal activity against Sitophilus oryzae (rice weevil) assessed as mortality after 10 days by food poison technique; type: functional
Triticum aestivum [57] = assay: Phytotoxicity in Triticum aestivum (wheat) assessed as shoot growth at 500 ug/ml pre-soaked for 60 min measured after 120 hr relative to acetone-treated control; type: organism-based; conditions: in vivo
Sitophilus oryzae [58] = assay: Insecticidal activity against Sitophilus oryzae (rice weevil) assessed as mortality at 200 ug/g after 10 days by food poison technique relative to control; type: functional
Triticum aestivum [59] = assay: Phytotoxicity in Triticum aestivum (wheat) assessed as shoot growth at 500 ug/ml pre-soaked for 30 min measured after 72 hr relative to acetone-treated control; type: organism-based; conditions: in vivo
Sitophilus oryzae [60] = assay: Insecticidal activity against Sitophilus oryzae (rice weevil) assessed as mortality at 400 ug/g after 5 days by food poison technique relative to acetone-treated control; type: functional
Triticum aestivum [61] = assay: Phytotoxicity in Triticum aestivum (wheat) assessed as germination rate at 500 ug/ml pre-soaked for 60 min measured after 72 hr relative to acetone-treated control; type: organism-based; conditions: in vivo

Which results are given for `C=C1C(=O)O[C@@H]2C[C@@]3(C)CCCC(=C)[C@@H]3C[C@H]12` [ISOALANTOLACTONE]?
mortality (Sitophilus oryzae [1]): 100%; Activity (Triticum aestivum [2]): 25%; mortality (Sitophilus oryzae [3]): 100%; Activity (Sitophilus oryzae [4]): 13.22%; Activity (Triticum aestivum [5]): 94%; Activity (Triticum aestivum [6]): 101.2%; LC50 (Sitophilus oryzae [7]): 610.51 µg/g; Activity (Triticum aestivum [8]): 76.1%; mortality (Sitophilus oryzae [9]): 64.28%; Activity (Triticum aestivum [10]): 96%; mortality (Sitophilus oryzae [11]): 17.95%; mortality (Sitophilus oryzae [12]): 17.95%; mortality (Sitophilus oryzae [13]): 42.86%; mortality (Sitophilus oryzae [14]): 86.54%; mortality (Sitophilus oryzae [15]): 30.77%; Activity (Triticum aestivum [16]): 51.7%; Activity (Triticum aestivum [17]): 100%; Activity (Triticum aestivum [18]): 76.9%; Activity (Triticum aestivum [19]): 99.1%; Activity (Sitophilus oryzae [20]): 12.87%; mortality (Sitophilus oryzae [21]): 100%; Activity (Sitophilus oryzae [22]): 12.41%; mortality (Sitophilus oryzae [23]): 100%; mortality (Sitophilus oryzae [24]): 23.81%; Activity (Triticum aestivum [25]): 97.4%; mortality (Sitophilus oryzae [26]): 74.36%; mortality (Sitophilus oryzae [27]): 100%; Activity (Triticum aestivum [28]): 106.7%; mortality (Sitophilus oryzae [29]): 35.91%; mortality (Sitophilus oryzae [30]): 55.38%; mortality (Sitophilus oryzae [31]): 100%; mortality (Sitophilus oryzae [32]): 100%; Activity (Triticum aestivum [33]): 63.7%; Activity (Triticum aestivum [34]): 100.4%; Activity (Triticum aestivum [35]): 100%; Activity (Triticum aestivum [36]): 100%; Activity (Triticum aestivum [37]): 82.5%; Activity (Triticum aestivum [38]): 53.7%; mortality (Sitophilus oryzae [39]): 11.9%; mortality (Sitophilus oryzae [40]): 100%; Activity (Triticum aestivum [41]): 47.9%; mortality (Sitophilus oryzae [42]): 69.23%; mortality (Sitophilus oryzae [43]): 100%; mortality (Sitophilus oryzae [44]): 56.41%; Activity (Sitophilus oryzae [45]): Dose-dependent effect; LC50 (Sitophilus oryzae [46]): 655.31 µg/g; Activity (Triticum aestivum [47]): 46%; Activity (Triticum aestivum [48]): 83.9%; mortality (Sitophilus oryzae [49]): 76.19%; mortality (Sitophilus oryzae [50]): 58.97%; mortality (Sitophilus oryzae [51]): 100%; LC50 (Sitophilus oryzae [52]): 1234.57 µg/g; mortality (Sitophilus oryzae [53]): 33.33%; Activity (Sitophilus oryzae [54]): 12.13%; Activity (Triticum aestivum [55]): 100.7%; LC50 (Sitophilus oryzae [56]): 707.21 µg/g; Activity (Triticum aestivum [57]): 63.5%; mortality (Sitophilus oryzae [58]): 16.67%; Activity (Triticum aestivum [59]): 102%; mortality (Sitophilus oryzae [60]): 19.04%; Activity (Triticum aestivum [61]): 84.6%
